Measurements published in patent US7060733B2, “Methods for treating pancreatitis with curcumin compounds and inhibitors of reactive oxygen species” (The Regents of the University of California, priority 2002, dated 2006).

Legend:
NF-κB and AP-1 = settings: antioxidant; cited from earlier work
NF-κB = assay: Curcumin and N-acetylcysteine alone and in combination, NF-κB activation in CCK-stimulated acinar cells; format: cell-based, rat; settings: 0.1 μM CCK
Description: To measure the effects of curcumin compounds and ROS inhibitors, EMSAs and nuclear protein extractions were conducted as provided above. […] EMSAs for NF-κB activation were performed on nuclear proteins extracted from each sample.

Compound | NF-κB activation (NF-κB and AP-1) | inhibition of NF-κB activation in CCK-stimulated acinar cells (NF-κB; N-acetylcysteine 10 μM alone) | inhibition of NF-κB activation in CCK-stimulated acinar cells (NF-κB; curcumin 50 μM with N-acetylcysteine 10 μM)
CC(=O)N[C@@H](CS)C(=O)O [N-acetylcysteine, reference compound] | inhibit | very little inhibition | 
curcumin and N-acetylcysteine |  |  | synergistic effect
